Measured values as given in article PMC9370031, “Free Linoleic Acid and Oleic Acid Reduce Fat Digestion and Absorption In Vivo as Potent Pancreatic Lipase Inhibitors Derived from Sesame Meal” (Molecules, 2022).
Where two headings read alike, the source gives them in different places.

Target: T1, porcine pancreatic lipase (Sus scrofa, UniProt P00591)
T1 construct: gene PNLIP
T1 sequence (P00591 1-450): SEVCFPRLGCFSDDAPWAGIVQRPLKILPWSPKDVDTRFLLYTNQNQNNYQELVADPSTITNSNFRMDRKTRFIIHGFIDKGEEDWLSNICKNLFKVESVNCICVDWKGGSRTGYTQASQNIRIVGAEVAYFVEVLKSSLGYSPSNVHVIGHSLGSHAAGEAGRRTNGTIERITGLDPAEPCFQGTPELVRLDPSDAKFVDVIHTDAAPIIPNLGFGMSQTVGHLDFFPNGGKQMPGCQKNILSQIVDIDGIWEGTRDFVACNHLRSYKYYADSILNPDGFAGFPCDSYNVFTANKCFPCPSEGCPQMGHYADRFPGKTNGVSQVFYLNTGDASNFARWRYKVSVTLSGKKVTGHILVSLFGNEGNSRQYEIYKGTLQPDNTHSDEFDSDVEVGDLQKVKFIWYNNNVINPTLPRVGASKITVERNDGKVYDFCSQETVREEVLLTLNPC
Assay: colorimetric lipase activity assay (Lipase Kit S, BLAB/DTNB, […] nm) with porcine pancreas lipase Type II
Type: biochemical

| IC50 (read-out: IC50) | SMILES | IC50 |
| --- | --- | --- |
| – | CCCCC/C=C\C/C=C\CCCCCCCC(=O)O [linoleic acid] | 82.4 µM |
| 41.4 µM | CCCCCCCC/C=C\CCCCCCCC(=O)O [oleic acid] | – |
